Measurements as given in publication PMC6406907, “A H2AX–CARP-1 Interaction Regulates Apoptosis Signaling Following DNA Damage” (Cancers, 2019).

System: CARP-1, phospho-JNK1/2, phospho-H2AX
Assay: Western blot of CARP-1, phospho-JNK1/2, γH2AX in HeLa
Assay type: cell-based, human
Settings: 10 μM, WB
Description: Logarithmically growing cells were either untreated or treated with different agents for various time periods. The cells were lysed to prepare protein extracts. IP was carried out by incubating approximately 1 mg of the protein lysate with appropriate antibodies. The immunoprecipitates were then analyzed by SDS-PAGE, followed by WB with respective, interacting protein. For Gst-pulldown, Gst-H2AX or various His-TAT-HA-tagged CARP-1 peptides were generated in Escherichia coli (E. coli) BL21 cells essentially as described by us previously. Briefly, the competent E. coli BL-21 (DE3) pLysS cells were transformed separately with various recombinant pGEX-4T-1 or pTAT-HA constructs. The transformed cells were then subjected to selection by combined presence of ampicillin and chloramphenicol; various isolates for each transformation were obtained and bacterial lysates were characterized for expression of fusion peptides. Cells from each isolate were grown in 4 mL of LB medium containing ampicillin only until the optical density (OD)600 reached 0.4–0.8. […]
Here, we utilized human TNBC MDA-MB-468 and human cervical cancer HeLa cells to conduct an MTT-based dose-response analysis using Adriamycin and CFM compounds. […] The cell lysates from the control, untreated, and treated cells were analyzed by WB for expression of CARP-1, phospho-JNK1/2, phospho-H2AX, and poly ADP ribose polymerase (PARP) proteins. […]

Structure (SMILES) | expression of CARP-1, phospho-JNK1/2, phospho-H2AX
COc1cccc2c1C(=O)c1c(O)c3c(c(O)c1C2=O)C[C@@](O)(C(=O)CO)C[C@@H]3O[C@H]1C[C@H](N)[C@H](O)[C@H](C)O1 [Adriamycin, doxorubicin, reference compound] | stimulated expression of CARP-1, phospho-JNK1/2, and phospho-H2AX in a time-dependent manner
O=C1N(Cc2ccccc2Cl)c2ccccc2C12NN=C(c1cccc(Cl)c1)S2 (centres unmarked) [CFM-4.16] | stimulated expression of CARP-1, phospho-JNK1/2, and phospho-H2AX in a time-dependent manner
